Earlier results on one compound are cited in patent publication US20160000732A1, “ORAL PHARMACEUTICAL COMPOSITIONS OF OSPEMIFENE” (CADILA HEALTHCARE LIMITED, priority 2014, published 2016).

The conditions of series [1]: classical hormonal tests, Kangas 1990.
The conditions of series [2]: experimental models and human volunteers; WO 1996/07402, WO 1997/32574.

As to `OCCOc1ccc(/C(=C(/CCCl)c2ccccc2)c2ccccc2)cc1` [Ospemifene, 2-[4-(4-chloro-1,2-diphenylbut-1-enyl)phenoxy]ethanol], the “estrogenic and antiestrogenic effects” value in series [1] was “relatively weak”. The “total and LDL cholesterol levels” value in series [2] is “decreases”.
